The values that follow come from patent US7767704B2, “Antiviral 4-aminocarbonylamino-substituted imidazole compounds” (AiCuris GmbH & Co. KG, priority 2004, dated 2010).

The subject of one data set is HCMV. Nature of the data set: Anti-HCMV (anti-human cytomegalovirus) cytopathogenicity test. Particulars: Human betaherpesvirus 5, 144 h; HCMV-infected NHDF cells, M.O.I. 0.001-0.002, 6 days; inhibition of CPE by 50% vs untreated virus control. Format: cell-based. As for the experimental part: (§1) Anti-HCMV (Anti-human Cytomegalovirus) Cytopathogenicity Tests
(§2) The test compounds are employed as 50 millimolar (mM) solutions in dimethyl sulphoxide (DMSO). Ganciclovir, foscarnet and cidofovir are used as reference compounds. After addition of in each case 2 μl of the 50, 5, 0.5 and 0.05 mM DMSO stock solutions to 98 μl portions of cell culture medium in row 2 A-H for duplicate determinations, 1:2 dilutions are carried out with 50 μl portions of medium up to row 11 of the 96-well plate. The wells in rows 1 and 12 each contain 50 μl of medium. 150 μl of a suspension of 1×10^4 cells (human prepuce fibroblasts [NHDF]) are pipetted into each of the wells (row 1=cell control) and, in rows 2-12, a mixture of HCMV-infected and uninfected NHDF cells (M.O.I.=0.001-0.002), i.e. 1-2 infected cells per 1000 uninfected cells. Row 12 (without substance) serves as virus control. The final test concentrations are 250-0.0005 μM. The plates are incubated at 37° C./5% CO2 for 6 days, i.e. until all the cells are infected in the virus controls (100% cytopathogenic effect [CPE]). The wells are then fixed and stained by adding a mixture of formalin and Giemsa's dye (30 minutes), washed with double-distilled water and dried in a drying oven at 50° C. The plates are then assessed visually using an overhead microscope (plaque multiplier from Technomara).
(§3) The following data can be acquired from the test plates: • CC50 (NHDF)=substance concentration in μM at which no visible cytostatic effects on the cells are evident by comparison with the untreated cell control; • EC50 (HCMV)=substance concentration in […] which inhibits the CPE (cytopathic effect) by 50% compared with the untreated virus control; • SI (selectivity index)=CC50 (NHDF)/EC50 (HCMV).

Data set [1] can be described thus: Cytostatic effect on NHDF cells in the anti-HCMV cytopathogenicity test. Particulars: NHDF cells (human prepuce fibroblasts), 6 days incubation, visual assessment, concentration at which no visible cytostatic effects are evident. Format: cell-based. As to the method:
as §1, §2, §3

The compound `O=C(Nc1ccc(OC(F)(F)F)cc1)Nc1cn(Cc2ccc(C(F)(F)F)cc2)c(C(=O)NCCOC(=O)CN2CCOCC2)n1` [Example 139] returned an EC50 with HCMV of 2.8 nM. The compound also had a CC50 at 6 days in data set [1] of 4700 nM.

The compound `COCCOCCCNC(=O)c1nc(NC(=O)Nc2ccc(Cl)cc2C)cn1CC=C(C)C` [Example 25] yielded an EC50 in the data set with HCMV of 1 nM. The compound also displayed a CC50 at 6 days in data set [1] of 6250 nM.

Consider `COc1ccc(CNC(=O)c2nc(NC(=O)Nc3ccc(OC(F)(F)F)cc3)cn2CC2CC2)cc1` [Example 32], for which the EC50 with HCMV worked out at 1 nM. In addition, half-maximal cytotoxicity in data set [1] (CC50 at 6 days) was put at 3130 nM.

On to `O=C(Nc1ccc(OC(F)(F)F)cc1)Nc1cn(Cc2ccc(C(F)(F)F)cc2)c(C(=O)NCCO)n1` [Example 124, N-(2-Hydroxyethyl)-4-[({[4-(trifluoromethoxy)phenyl]amino}carbonyl)amino]-1-[4-(trifluoromethyl)benzyl]-1H-imidazole-2-carboxamide], for which the EC50 in the data set on HCMV was 1.4 nM. For the same compound, the CC50 at 6 days in data set [1] was 9400 nM.

Take `COc1ccc(C(C)NC(=O)c2nc(NC(=O)Nc3ccc(C)c(F)c3)cn2C)cn1` (stereo not shown) [Example 2, 4-({[(3-Fluoro-4-methylphenyl)amino]carbonyl}amino)-N-[1-(6-methoxypyridin-3-yl)ethyl]-1-methyl-1H-imidazole-2-carboxamide]: in the data set on HCMV, the EC50 came to 0.5 nM. In data set [1], this compound yielded a CC50 at 6 days of 94000 nM.

As to `Cn1cc(NC(=O)Nc2ccc(OC(F)(F)F)cc2)nc1C(=O)NCCCC(F)(F)F` [Example 152, 1-Methyl-N-(4,4,4-trifluorobutyl)-4-[({[4-(trifluoromethoxy)phenyl]amino}carbonyl)amino]-1H-imidazole-2-carboxamide], in the data set with HCMV, the midpoint of the response, the EC50, lay at 1.9 nM. Further, the CC50 at 6 days in data set [1] was 31000 nM.

In the data set with HCMV, `Cc1cc(Cl)ccc1NC(=O)Nc1cn(CC2CC2)c(C(=O)NCCCN2CCOCC2)n1` [Example 3, 4-({[(4-Chloro-2-methylphenyl)amino]carbonyl}amino)-1-(cyclopropylmethyl)-N-(3-morpholin-4-ylpropyl)-1H-imidazole-2-carboxamide] registered an EC50 of 3 nM. The same compound showed a CC50 at 6 days in data set [1] of 25000 nM.

Regarding `Cc1cc(Cl)ccc1NC(=O)Nc1cn(CC2CC2)c(C(=O)NCCCn2cccn2)n1` [Example 11], the midpoint of the response with HCMV, the EC50, lay at 1 nM. The compound further came in with a CC50 at 6 days in data set [1] of 25000 nM.
